# Target: mTOR (Homo sapiens, UniProt P42345)
# Assay: mTOR kinase inhibition, Lance Ultra assay
# Format: biochemical
# Conditions: mTOR IC50, text and Fig. 3A
row,Structure (SMILES),IC50
1,Nc1ccccc1/N=c1\cc(-c2ccc3c(c2)OCO3)oc2ccccc12 [Compound 4a],1.5 µM

# Same assay, conditions: mTOR, IC50, mean ± SD of triplicate measurements
row,Structure (SMILES),IC50
1,"NCC(=O)Nc1ccccc1/N=c1\cc(-c2ccc3c(c2)OCCO3)oc2ccccc12 [Compound 5p, (E)-2-amino-N-(2-((2-(2,3-dihydrobenzo[b][1,4]dioxin-6-yl)-4H-chromen-4-ylidene)amino)phenyl)acetamide]",1.52 ± 0.121 µM
2,"COCCC(=O)Nc1ccccc1/N=c1\cc(-c2ccc3nc(N)oc3c2)oc2ccccc12 [Compound 12b, (E)-N-(2-((2-(2-aminobenzo[d]oxazol-6-yl)-4H-chromen-4-ylidene)amino)phenyl)-3-methoxypropanamide]",3.37 ± 0.334 µM
3,"N[C@@H](CO)C(=O)Nc1ccccc1/N=c1\cc(-c2ccc3c(c2)OCO3)oc2ccccc12 [Compound 5c, (S,E)-2-amino-N-(2-((2-(benzo[d][1,3]dioxol-5-yl)-4H-chromen-4-ylidene)amino)phenyl)-3-hydroxypropanamide]",> 10 µM
4,"NCC(=O)Nc1ccccc1/N=c1\cc(-c2ccc3c(c2)OCO3)oc2ccccc12 [Compound 5a, (E)-2-amino-N-(2-((2-(benzo[d][1,3]dioxol-5-yl)-4H-chromen-4-ylidene)amino)phenyl)acetamide]",0.719 ± 0.0074 µM
5,"Nc1nc2ccc(-c3c/c(=N\c4ccccc4NC(=O)CCN4CCOCC4)c4ccccc4o3)cc2o1 [Compound 12h, (E)-N-(2-((2-(2-aminobenzo[d]oxazol-6-yl)-4H-chromen-4-ylidene)amino)phenyl)-3-morpholinopropanamide]",> 10 µM
6,"C[C@H](N)C(=O)Nc1ccccc1/N=c1\cc(-c2ccc3c(c2)OCCO3)oc2c([N+](=O)[O-])cccc12 [Compound 5q, (S,E)-2-amino-N-(2-((2-(2,3-dihydrobenzo[b][1,4]dioxin-6-yl)-8-nitro-4H-chromen-4-ylidene)amino)phenyl)propanamide]",> 10 µM
7,"NCCCCC(=O)Nc1ccccc1/N=c1\cc(-c2ccc3c(c2)OCO3)oc2ccccc12 [Compound 5g, (E)-5-amino-N-(2-((2-(benzo[d][1,3]dioxol-5-yl)-4H-chromen-4-ylidene)amino)phenyl)pentanamide]",> 10 µM
8,"NCCC(=O)Nc1ccccc1/N=c1\cc(-c2ccc3c(c2)OCO3)oc2ccccc12 [Compound 5e, (E)-3-amino-N-(2-((2-(benzo[d][1,3]dioxol-5-yl)-4H-chromen-4-ylidene)amino)phenyl)propanamide]",0.317 ± 0.0191 µM
9,"CC(C)(C)[C@H](N)C(=O)Nc1ccccc1/N=c1\cc(-c2ccc3c(c2)OCO3)oc2ccccc12 [Compound 5j, (S,E)-2-amino-N-(2-((2-(benzo[d][1,3]dioxol-5-yl)-4H-chromen-4-ylidene)amino)phenyl)-3,3-dimethylbutanamide]",> 10 µM
10,Nc1ccccc1/N=c1\cc(-c2ccc3c(c2)OCO3)oc2ccccc12 [Compound 4a],1.54 ± 0.0211 µM
11,"Nc1nc2ccc(-c3c/c(=N\c4ccccc4NC(=O)CCN4CCCC4)c4ccccc4o3)cc2o1 [Compound 12g, (E)-N-(2-((2-(2-aminobenzo[d]oxazol-6-yl)-4H-chromen-4-ylidene)amino)phenyl)-3-(pyrrolidin-1-yl)propanamide]",> 10 µM
12,"NCCC(=O)Nc1ccc(/N=c2\cc(-c3ccc4c(c3)OCO4)oc3ccccc23)cc1 [Compound 5ac, (E)-3-amino-N-(4-((2-(benzo[d][1,3]dioxol-5-yl)-4H-chromen-4-ylidene)amino)phenyl)propanamide]",> 10 µM
13,"CCN(CC)CCC(=O)Nc1ccccc1/N=c1\cc(-c2ccc3nc(N)oc3c2)oc2ccccc12 [Compound 12f, (E)-N-(2-((2-(2-aminobenzo[d]oxazol-6-yl)-4H-chromen-4-ylidene)amino)phenyl)-3-(diethylamino)propanamide]",> 10 µM
14,"NCCC(=O)Nc1ccccc1/N=c1\cc(-c2ccc3nc(N)oc3c2)oc2cc(Br)ccc12 [Compound 12o, (E)-3-amino-N-(2-((2-(2-aminobenzo[d]oxazol-6-yl)-7-bromo-4H-chromen-4-ylidene)amino)phenyl)propanamide]",9.34 ± 0.748 µM
15,"COc1ccc2/c(=N/c3ccccc3NC(=O)CN)cc(-c3ccc4c(c3)OCCO4)oc2c1 [Compound 5t, (E)-2-amino-N-(2-((2-(2,3-dihydrobenzo[b][1,4]dioxin-6-yl)-7-methoxy-4H-chromen-4-ylidene)amino)phenyl)acetamide]",> 10 µM
16,"C[C@H](N)C(=O)Nc1ccccc1/N=c1\cc(-c2ccc3c(c2)OCCO3)oc2cc(F)ccc12 [Compound 5x, (S,E)-2-amino-N-(2-((2-(2,3-dihydrobenzo[b][1,4]dioxin-6-yl)-7-fluoro-4H-chromen-4-ylidene)amino)phenyl)propanamide]",> 10 µM

row,Structure (SMILES),IC50
1,"NCCC(=O)Nc1ccccc1/N=c1\cc(-c2ccc3oc(N)nc3c2)oc2ccccc12 [Compound 21, (E)-3-amino-N-(2-((2-(2-aminobenzo[d]oxazol-5-yl)-4H-chromen-4-ylidene)amino)phenyl)propanamide]",0.696 ± 0.0582 µM
2,"COCCC(=O)Nc1ccccc1/N=c1\cc(-c2ccc3c(c2)OCO3)oc2ccccc12 [Compound 5d, (E)-N-(2-((2-(benzo[d][1,3]dioxol-5-yl)-4H-chromen-4-ylidene)amino)phenyl)-3-methoxypropanamide]",> 10 µM
3,"CS(=O)(=O)NCCC(=O)Nc1ccccc1/N=c1\cc(-c2ccc3nc(N)oc3c2)oc2ccccc12 [Compound 12d, (E)-N-(2-((2-(2-aminobenzo[d]oxazol-6-yl)-4H-chromen-4-ylidene)amino)phenyl)-3-(methylsulfonamido)propanamide]",3.39 ± 0.164 µM
4,"O=C(Nc1ccccc1/N=c1\cc(-c2ccc3c(c2)OCO3)oc2ccccc12)N1CCNCC1 [Compound 5i, (E)-N-(2-((2-(benzo[d][1,3]dioxol-5-yl)-4H-chromen-4-ylidene)amino)phenyl)piperazine-1-carboxamide]",7.47 ± 0.139 µM
5,"C[C@H](N)C(=O)Nc1ccccc1/N=c1\cc(-c2ccc3c(c2)OCCO3)oc2c(N)cccc12 [Compound 5r, (S,E)-2-amino-N-(2-((8-amino-2-(2,3-dihydrobenzo[b][1,4]dioxin-6-yl)-4H-chromen-4-ylidene)amino)phenyl)propanamide]",> 10 µM
6,"CN(C)CCC(=O)Nc1ccccc1/N=c1\cc(-c2ccc3nc(N)oc3c2)oc2ccccc12 [Compound 12e, (E)-N-(2-((2-(2-aminobenzo[d]oxazol-6-yl)-4H-chromen-4-ylidene)amino)phenyl)-3-(dimethylamino)propanamide]",2.61 ± 0.201 µM
7,"COc1ccc2/c(=N/c3ccccc3NC(=O)[C@H](C)N)cc(-c3ccc4c(c3)OCCO4)oc2c1 [Compound 5s, (S,E)-2-amino-N-(2-((2-(2,3-dihydrobenzo[b][1,4]dioxin-6-yl)-7-methoxy-4H-chromen-4-ylidene)amino)phenyl)propanamide]",> 10 µM
8,"C[C@H](N)C(=O)Nc1ccccc1/N=c1\cc(-c2ccc3c(c2)OCO3)oc2ccccc12 [Compound 5b, (S,E)-2-amino-N-(2-((2-(benzo[d][1,3]dioxol-5-yl)-4H-chromen-4-ylidene)amino)phenyl)propanamide]",3.19 ± 0.194 µM
9,"NCCC(=O)Nc1cccc(/N=c2\cc(-c3ccc4c(c3)OCO4)oc3ccccc23)c1 [Compound 5ab, (E)-3-amino-N-(3-((2-(benzo[d][1,3]dioxol-5-yl)-4H-chromen-4-ylidene)amino)phenyl)propanamide]",> 10 µM
10,"NCC(=O)Nc1ccccc1/N=c1\cc(-c2ccc3c(c2)OCO3)oc2c(N)cccc12 [Compound 5m, (E)-2-amino-N-(2-((2-(benzo[d][1,3]dioxol-5-yl)-8-amino-4H-chromen-4-ylidene)amino)phenyl)acetamide]",6.16 ± 1.11 µM
11,"N#Cc1ccc2oc(-c3ccc4nc(N)oc4c3)c/c(=N\c3ccccc3NC(=O)CCN)c2c1 [Compound 12l, (E)-3-amino-N-(2-((2-(2-aminobenzo[d]oxazol-6-yl)-6-cyano-4H-chromen-4-ylidene)amino)phenyl)propanamide]",1.24 ± 0.0861 µM
12,"O=C(Nc1ccccc1/N=c1\cc(-c2ccc3c(c2)OCO3)oc2ccccc12)N1CCOCC1 [Compound 5h, (E)-N-(2-((2-(benzo[d][1,3]dioxol-5-yl)-4H-chromen-4-ylidene)amino)phenyl)morpholine-4-carboxamide]",> 10 µM
13,"CCNc1nc2ccc(-c3c/c(=N\c4ccccc4NC(=O)CCN)c4ccccc4o3)cc2o1 [Compound 15, (E)-3-amino-N-(2-((2-(2-(ethylamino)benzo[d]oxazol-6-yl)-4H-chromen-4-ylidene)amino)phenyl)propanamide]",2.66 ± 0.38 µM
14,"NCC(=O)Nc1ccccc1/N=c1\cc(-c2ccc3c(c2)OCCO3)oc2cc(F)ccc12 [Compound 5y, (E)-2-amino-N-(2-((2-(2,3-dihydrobenzo[b][1,4]dioxin-6-yl)-7-fluoro-4H-chromen-4-ylidene)amino)phenyl)acetamide]",> 10 µM
15,"NCCCC(=O)Nc1ccccc1/N=c1\cc(-c2ccc3c(c2)OCO3)oc2ccccc12 [Compound 5f, (E)-4-amino-N-(2-((2-(benzo[d][1,3]dioxol-5-yl)-4H-chromen-4-ylidene)amino)phenyl)butanamide]",8.19 ± 1.85 µM

# Same assay, conditions: vs 12a
row,Structure (SMILES),fold decrease in kinase inhibitory activity (mTOR)
1,"NCCC(=O)Nc1ccccc1/N=c1\cc(-c2ccc3oc(N)nc3c2)oc2ccccc12 [Compound 21, (E)-3-amino-N-(2-((2-(2-aminobenzo[d]oxazol-5-yl)-4H-chromen-4-ylidene)amino)phenyl)propanamide]",15.4 fold

# Test system: MDA-MB-231 cells
# Assay: Cell viability CCK-8 assay
# Format: cell-based, human
# Conditions: Homo sapiens, MDA-MB-231, 48 h, read-out: Antiproliferative IC50 ± SD
row,Structure (SMILES),IC50
1,"CC(C)n1nc(-c2ccc3oc(N)nc3c2)c2c(N)ncnc21 [MLN-0128, reference compound]",0.179 ± 0.238 µM
2,"CO[C@H]1C[C@@H]2CC[C@@H](C)[C@@](O)(O2)C(=O)C(=O)N2CCCC[C@H]2C(=O)O[C@H]([C@H](C)C[C@@H]2CC[C@@H](OCCO)[C@H](OC)C2)CC(=O)[C@H](C)/C=C(\C)[C@@H](O)[C@@H](OC)C(=O)[C@H](C)C[C@H](C)/C=C/C=C/C=C/1C [Everolimus, reference compound]",2.29 ± 0.0763 µM
3,"CC(=O)O[C@H]1C(=O)[C@@]2(C)[C@H]([C@H](OC(=O)c3ccccc3)[C@]3(O)C[C@H](OC(=O)[C@H](O)[C@@H](NC(=O)c4ccccc4)c4ccccc4)C(C)=C1C3(C)C)[C@]1(OC(C)=O)CO[C@@H]1C[C@@H]2O [Paclitaxel, reference compound]",3.862 ± 0.0132 µM
